Laboratory results as given in ChEMBL document CHEMBL6127018, “Molecular design and evaluation of aza-polycyclic carbamoyl pyridones as HIV-1 integrase strand transfer inhibitors” (Bioorg Med Chem Lett, 2024).

Legend:
[1] = tested on: Human immunodeficiency virus 1; assay: Antiviral activity against HIV-1 infected in human MT4 cells; assay type: functional, organism-based; settings: Human immunodeficiency virus 1, MT4
[2] = Selectivity ratio of PAEC50 for antiviral activity against HIV-1 infected in human MT4 cells in presence of human serum albumin to EC50 for antiviral activity against HIV-1 infected in human MT4 cells; assay type: functional, Human immunodeficiency virus 1
[3] = Cytotoxicity against human MT4 cells; assay type: toxicity, cell-based
[4] = biological target: Human immunodeficiency virus type 1 integrase (Human immunodeficiency virus 1, UniProt Q7ZJM1); assay: Inhibition of recombinant HIV-1 integrase by microtiter plate integration assay
Sequence of Human immunodeficiency virus type 1 integrase (Q7ZJM1 whole entry): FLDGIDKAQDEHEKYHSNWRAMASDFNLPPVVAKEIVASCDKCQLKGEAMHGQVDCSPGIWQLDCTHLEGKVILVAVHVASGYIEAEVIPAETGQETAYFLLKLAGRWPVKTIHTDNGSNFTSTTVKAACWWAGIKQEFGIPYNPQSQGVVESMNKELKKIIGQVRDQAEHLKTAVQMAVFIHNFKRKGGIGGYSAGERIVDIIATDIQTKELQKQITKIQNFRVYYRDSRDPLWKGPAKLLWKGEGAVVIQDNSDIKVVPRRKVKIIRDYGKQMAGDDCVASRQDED

[5] = tested on: Human immunodeficiency virus 1; assay: Antiviral activity against HIV-1 harboring raltegravir resistant Q148H mutant infected in human HeLa-CD4 cells assessed as fold change; assay type: functional

Structure (SMILES) | EC50 [1] [nM] | Selectivity ratio [2] | CC50 [3] [nM] | IC50 [4] [nM] | fold change (FC) [5]
O=C(NCc1ccc(F)cc1F)c1cn2c(c(O)c1=O)C(=O)N1CCCCCN1C2 | 3.5 | 400 | 17000 | 6.2 | –
COCCN1CN(C(c2ccccc2)c2ccccc2)n2cc(C(=O)NCc3ccc(F)cc3F)c(=O)c(O)c2C1=O | 57000 | – | – | – | –
CN1NCn2cc(C(=O)NCc3ccc(F)cc3F)c(=O)c(O)c2C1=O | 3.9 | 12 | 34000 | 4.8 | –
COCCN1CN(Cc2ccccc2)n2cc(C(=O)NCc3ccc(F)cc3F)c(=O)c(O)c2C1=O | 1.9 | 17 | 5000 | 3.5 | 1.1
CN1CN(C2CC2)C(=O)c2c(O)c(=O)c(C(=O)NCc3ccc(F)cc3F)cn21 | 2 | 1000 | 12000 | 4.7 | 1.5
CCN1CN(CCOC)C(=O)c2c(O)c(=O)c(C(=O)NCc3ccc(F)cc3F)cn21 | 1.3 | 110 | 8500 | 4.9 | 0.73
COCCN1CN(Cc2cccnc2)n2cc(C(=O)NCc3ccc(F)cc3F)c(=O)c(O)c2C1=O | 3.2 | 3.3 | 8100 | 6.9 | 1.4
CN1Cn2cc(C(=O)NCc3ccc(F)cc3F)c(=O)c(O)c2C(=O)N1CCO | 15 | 18 | > 50000 | 4.9 | –
CC(=O)NCCN1Cn2cc(C(=O)NCc3ccc(F)cc3F)c(=O)c(O)c2C(=O)N1C | 120 | 2.8 | > 50000 | 9 | –
CN1Cn2cc(C(=O)NCc3ccc(F)cc3F)c(=O)c(O)c2C(=O)N1 | 29 | 8.4 | > 50000 | 4.5 | –
C[C@@H]1CCO[C@H]2Cn3cc(C(=O)NCc4ccc(F)cc4F)c(=O)c(O)c3C(=O)N12 [DOLUTEGRAVIR] | 2.1 | – | 15000 | – | 0.74
COCCN1C(=O)c2c(O)c(=O)c(C(=O)NCc3ccc(F)cc3F)cn2CN1C | 1.4 | 24 | 18000 | 4.5 | 1.7
O=C(NCc1ccc(F)cc1)c1cn2c(c(O)c1=O)C(=O)N1CCCN1C2 | 3.6 | 9.1 | 41000 | 5.2 | –
CCN1Cn2cc(C(=O)NCc3ccc(F)cc3F)c(=O)c(O)c2C(=O)N1 | 11 | 44 | > 50000 | 4.5 | –
CN1Cn2cc(C(=O)NCc3ccc(F)cc3F)c(=O)c([O-])c2C(=O)N1C.[Na+] | 2.4 | 52 | > 50000 | 3.7 | –
COCCN1Cn2cc(C(=O)NCc3ccc(F)cc3F)c(=O)c(O)c2C(=O)N1C | 1.6 | 14 | 15000 | 4.4 | 2.3
COCCN1CN(Cc2ccccn2)n2cc(C(=O)NCc3ccc(F)cc3F)c(=O)c(O)c2C1=O | 2.4 | 4.7 | 7000 | 9.1 | 1.2
CN1CN(C[C@@H]2CCCO2)C(=O)c2c(O)c(=O)c(C(=O)NCc3ccc(F)cc3F)cn21 | 1.3 | 13 | 14000 | 4.7 | 1

Structure (SMILES) | EC50 [1] [nM] | Selectivity ratio [2] | CC50 [3] [nM] | IC50 [4] [nM] | fold change (FC) [5]
CN1CN(Cc2cccs2)C(=O)c2c(O)c(=O)c(C(=O)NCc3ccc(F)cc3F)cn21 | 1.7 | 96 | > 50000 | 4.5 | 0.72
CN(C)CCN1CN(C)n2cc(C(=O)NCc3ccc(F)cc3F)c(=O)c(O)c2C1=O | 4.8 | 2.2 | 12000 | 11 | 5
COCCN1CN(CC(C)C)n2cc(C(=O)NCc3ccc(F)cc3F)c(=O)c(O)c2C1=O | 3.5 | 620 | 13000 | 6.1 | 0.6
CN1CN(Cc2ccc(F)cc2)C(=O)c2c(O)c(=O)c(C(=O)NCc3ccc(F)cc3F)cn21 | 1.7 | 25 | > 50000 | 4.5 | 0.51
CN1CN(Cc2ccco2)C(=O)c2c(O)c(=O)c(C(=O)NCc3ccc(F)cc3F)cn21 | 1.5 | 89 | > 50000 | 5.7 | 0.77
CN1C(=O)c2c(O)c(=O)c(C(=O)NCc3ccc(F)cc3F)cn2CN1CCO | 20 | 3.1 | > 50000 | 4.7 | –
CN1CN(CC2CC2)C(=O)c2c(O)c(=O)c(C(=O)NCc3ccc(F)cc3F)cn21 | 1.3 | 360 | 13000 | 4 | 0.85
O=C(NCc1ccc(F)cc1F)c1cn2c(c(O)c1=O)C(=O)N1CCCN1C2 | 2.2 | 12 | > 50000 | 3.4 | –
CCN(CC)CCN1CN(CCOC)C(=O)c2c(O)c(=O)c(C(=O)NCc3ccc(F)cc3F)cn21 | 13 | 1.4 | 11000 | 22 | 2.3
O=C(NCc1ccc(F)cc1)c1cn2c(c(O)c1=O)C(=O)N1CCCCN1C2 | 1.8 | 215 | 23000 | 4.5 | –
COCCN1CN(C)n2cc(C(=O)NCc3ccc(F)cc3F)c(=O)c(O)c2C1=O | 0.83 | 18 | 13000 | 4.8 | 0.81
CN1CN(C[C@H]2CCCO2)C(=O)c2c(O)c(=O)c(C(=O)NCc3ccc(F)cc3F)cn21 | 1.4 | 23 | 9800 | 4.2 | 1.5
COCCCN1CN(C)n2cc(C(=O)NCc3ccc(F)cc3F)c(=O)c(O)c2C1=O | 1.3 | 11 | 18000 | 5.6 | 0.93
CC(C)N1CN(C)n2cc(C(=O)NCc3ccc(F)cc3F)c(=O)c(O)c2C1=O | 1.3 | 230 | 3900 | 5.3 | 0.64
COCCN1CN(CCO)n2cc(C(=O)NCc3ccc(F)cc3F)c(=O)c(O)c2C1=O | 9.4 | 13 | 28000 | 5.4 | 0.7
CC(C)N1NCn2cc(C(=O)NCc3ccc(F)cc3F)c(=O)c(O)c2C1=O | 1.7 | 34 | 15000 | 4.3 | –
O=C(NCc1ccc(F)cc1F)c1cn2c(c(O)c1=O)C(=O)N1CCOCCN1C2 | 4.6 | 20 | 32000 | 8.7 | –
COCCN1CN(CC(=O)N(C)C)n2cc(C(=O)NCc3ccc(F)cc3F)c(=O)c(O)c2C1=O | 15 | 5 | 38000 | 5.1 | 0.9
